Measured values as given in patent US4803221A, “Anthracene derivatives” (priority 1987, dated 1989).
Where a name gives a salt, the structure may show the parent alone. Read-outs that look alike come from different tables or passages of the source.

What was measured:
[1] = Antibacterial screening against Mycoplasma smegmatis; type: cell-based
From the text: (§1) Antibacterial test against Mycoplasma smegmatis (S3264) and Streptococcus pyogenes (CN10) was done with slight modifications using standard agar dilution assays as outlined in Manual of Clinical Microbiology Second Ed., E. H. Lennette, E. H. Spaulding and J. P. Truant Eds., American Society for Microbiology, Washington, DC, 1974.

Streptococcus pyogenes = assay: Antibacterial testing against Streptococcus pyogenes (CN10); type: cell-based; settings: agar dilution
From the text: as §1

[2] = test system: lymphocytic leukemia P388/0; assay: Lymphocytic Leukemia P388/0 Test; type: in vivo, mouse (CD2-F1); parameters: LD20: unit: mg/kg; settings: ip days 1, 5, 9; for LD20: doses on a mg/kg basis; for T/C × 100% (Excluding 30 Day Survivors): median survival time treated/control, at the optimal dose of the compound (Table I), active if ≥120%
From the text: (§2) Methods for evaluating the antitumor activity of these compounds are essentially those used in the Tumor Panel by the Developmental Therapeutics Program, Division of Cancer Treatment, National Cancer Institute, A. Goldin, et al., Methods in Cancer Research, Vol. XVI, p.165, Academic Press (1979). Some modifications, in dose level and schedule have been made to increase the testing efficiency.
(§3) CD2-F1 mice, of the same sex, weighing 20±3 g are used for this test. Control and test animals are injected intraperitoneally with a suspension of ~10^6 viable P388/0 tumor cells on day 0. In each test, several dose levels which bracket the LD20 of the compound are evaluated; each dose level group contains six animals. The test compounds are prepared either in physiologic saline containing 0.05% Tween 80 or distilled water containing 5% dextrose and are administered intraperitoneally on days 1, 5, and 9 relative to tumor implant. Doses are on a mg/kg basis according to individual animals' body weights. The day of death for each animal is recorded, the median identified for each group and the ratios of median survival time for treated (T)/control (C) Groups are calculated. The criterion for activity is T/C×100≥120%.

LD50 Tests = settings: in vivo; IP single dose, CD-1 male mouse
From the text: |(IP single dose - CD-1 Male Mouse)

[3] = test system: lymphocytic leukemia L1210; assay: Lymphocytic Leukemia L1210 Test; type: in vivo, mouse (CD2-F1); settings: median survival; ip days 1, 5, 9; dose: 3C 110, 4C 150 mg/kg; active if >125%
From the text: as §2
The protocol for this test is identical to that for P388/0, except that the number of L1210 cells implanted on day 0 is […]. The mouse CD2-F1 strain is used, and the criterion for activity is T/C×100 >125%.

Lewis lung carcinoma = assay: Lewis Lung Carcinoma Test; type: in vivo, mouse (BD-F1); settings: median survival, iv tumor cells; dosing days 1, 5, 9; dose: 3C 130, 4C 200 mg/kg; active if ≥140%
From the text: as §2
This tumor arose spontaneously in the lung of a C57B1/6 mouse and is maintained by subcutaneous passage in that strain. The solid tumor is excised aseptically and placed in sterile saline. Pieces of viable tumor tissue are minced finely with scissors and forced through a 200 mesh stainless steel screen to disaggregate the tumor cells into a suspension. 10^6 Viable cells are injected intravenously into the tail vein of BD-F1, mice of the same sex weighing 20±3 g. In each test, several dose levels which bracket the L20 for the compound are evaluated. Ten animals are included in each dose level grup, and twenty animals in the untreated control group. The test compounds are prepared and administered on days 1, 5, and 9 as in the P388/0 protocol. The day of death for each animal is recorded, the median identified for each group and the ratios of median survival time for treated (T)/control (C) groups are calculated. The criterion for activity is T/C×100≥140%.

Colon 38 carcinoma = assay: Colon 38 Carcinoma Test; type: in vivo, mouse (C57Bl/6); settings: tumor weight, day 20; 150 mg/kg ip days 1, 5, 9; active if ≤42%
From the text: as §2
This chemically-induced tumor arose in a C57Bl/6 mouse and is maintained as a solid tumor in that mouse strain. The subcutaneously growing solid tumor is aseptically excised from passage mice and placed in sterile saline. The tumor is trimmed free of visible necrotic and connective tissue, then divided into 2-3 mm cubes. A cube is implanted subcutaneously in the ventral thoracic region with a sterile trochar on day 0. In each test several dose levels which bracket the LD20 for the compound are evaluated. Ten animals are included in each dose level group and thirty animals in the untreated control group. The test compounds are prepared either in physiologic saline containing 0.05% Tween 80 or distilled water containing 5% dextrose and are administered intraperitoneally on days 1, 5 and 9 after tumor implant. […] At day 20, the animals are sacrificed and the longest (L) and shortest (W) dimensions of each tumor measured with vernier calipers. Tumor weight is calculated from the formula [formula] […]

M5076 sarcoma = assay: M5076 Sarcoma Test; type: in vivo, mouse (B6C3-F1); settings: survival; 110 mg/kg; ip days 1, 5, 9; active if ≥125%
From the text: as §2
This sarcoma arose as a solid tumor in the ovary of a C57Bl/6 mouse and was subsequently converted to the ascitic form for intraperitoneal use. The protocol for this test is identical with that for P388/0. The B6C3-F1mouse strain is used and the criterion for activity is T/C×100≥125%.

[4] = test system: Nippostrongylus brasiliensis; assay: Anthelmintic screening against Nippostrongylus brasiliensis; type: cell-based
From the text: Anthelmintic testing against Nippostrongylus brasiliensis was done using methods outlined in D. C. Jenkins, R. Armitage, and T. S. Carrington, Zeitschrift for Parasitenkunde 63, 261-269 (1980)

Candida albicans = assay: Antifungal testing against Candida albicans (CN 1863); type: cell-based, Candida albicans (CN1863); settings: Wellcotest sensitivity test agar plus 7% lysed horse blood
From the text: Antifungal testing against Candida albicans (CN 1863) was done with slight modifications using a combination of broth and agar dilution assays as outlined in Laboratory Handbook of Medical Mycology, Chapter 6, pages 441-446, M. R. McGinnis, Academic Press, New York, NY, 1980
Medium: Wellcotest ® sensitivity test agar plus 7% lysed horse blood.

Herpes simplex 1/vero = Herpes simplex 1/vero plaque inhibition screen; type: cell-based; settings: plaque inhibition screen
From the text: The column headings labeled Score, Toxicity, and Zone of Inhibition refer to the plaque inhibition screen while the IC50 heading to the plaque reduction screen.

[5] = Lymphocytic Leukemia P388/0 Test; type: in vivo, mouse (CD2-F1); parameters: LD20: unit: mg/kg; settings: mouse, in vivo; ip days 1, 5, 9; doses on a mg/kg basis; read-out: highest nontoxic dose where the LD20 was not determined (values in parentheses in LD20 column)
From the text: as §2, §3

[6] = immature - free living stages, read-out: MIC

Structure (SMILES)	MIC [1]	LD20 [2]	T/C × 100% (Excluding 30 Day Survivors) [2]	LD50 (LD50 Tests)	other results
CC(CO)(CO)NCc1c2ccccc2cc2c(Cl)cccc12.Cl [Example 11B, 2-(((4-Chloro-9-anthracenyl)methyl)amino)-2-methyl-1,3-propanediol hydrochloride]	≤ 10 µg/mL	200	+215%		MIC (Streptococcus pyogenes): ≤ 10 µg/mL
CC(CO)(CO)NCc1c2ccccc2c(OCCO)c2ccccc12 [Example 25B, 2-(((10-(2-hydroxyethoxy)-9-anthracenyl)methyl)amino)-2-methyl-1,3-propanediol hydrochloride 1/2H2 O 1/10EtOH]		67	+300%	110 mg/kg	
CC(CO)(CO)NCc1c2ccccc2c(CCCl)c2ccccc12 [Example 4C, 2-(((10-(2-Chloroethyl)-9-anthracenyl)methyl)amino)-2-methyl-1,3-propanediol methanesulfonate]		130	+218%		T/C × 100% Excluding 30 day Survivors [3]: +217%; T/C × 100% Excluding 60 day Survivors (Lewis lung carcinoma): +154%; T/C × 100% (Colon 38 carcinoma): 38%
CSc1c2ccccc2c(CNC(C)(CO)CO)c2ccccc12 [Example 3C, 2-Methyl-2-(((10-methylthio-9-anthracenyl)methyl)amino)-1,3-propanediolmethanesulfonate]		70	+227%		T/C × 100% Excluding 30 day Survivors [3]: +194%; T/C × 100% Excluding 60 day Survivors (Lewis lung carcinoma): +145%; T/C × 100% (M5076 sarcoma): +132%
CC(CO)(CO)NCc1c2ccccc2cc2ccccc12.Cl [Example 1, 2-((9-Anthracenylmethyl)amino)-2-methyl-1,3-propanediol hydrochloride]	< 5 µg/mL	150	+130%	160 mg/kg	MIC [4, 6]: ≥ 50 µg/mL; MIC (Candida albicans): > 50 µg/mL
CC(CO)(CO)NCc1c2cccc(Cl)c2cc2c(Cl)cccc12.Cl [Example 10B, 2-(((4,5-dichloro-9-anthracenyl)methyl)amino)-2-methyl-1,3-propanediol hydrochloride]			+204%		Zone of Inhibition (Herpes simplex 1/vero): 32; MTD [5]: 450 mg/kg
COc1c2ccccc2c(CNC(C)(CO)CO)c2ccccc12.Cl [Example 13B, 2-(((10-Methoxy-9-anthracenyl)methyl)amino)-2-methyl-1,3-propanediol hydrochloride]	≤ 10 µg/mL	120	+220%		Zone of Inhibition (Herpes simplex 1/vero): 40; MIC (Streptococcus pyogenes): 100 µg/mL
CC(CO)(CO)NCc1c2ccccc2c(Cl)c2ccccc12.Cl [Example 2A, 2-(((10-chloro-9-anthracenyl)methyl)amino)-2-methyl-1,3-propanediol hydrochloride]	10 µg/mL	556	+228%	250 mg/kg	MIC [4, 6]: ≥ 50 µg/mL
Cc1c2ccccc2c(CNC(C)(CO)CO)c2ccccc12 [Example 7, 2-methyl-2-(((10-methyl-9-anthracenyl)methyl)amino)-1,3-propanediol hydrochloride.1/2H2 O]		140	+160%		MIC [4]: 50 µg/mL
CSc1c2ccccc2c(CNC(C)(CO)CO)c2ccccc12.Cl [Example 3B, 2-methyl-2-(((10-methylthio-9-anthracenyl)methyl)amino)-1,3-propanediol hydrochloride]		120	+262%	100 mg/kg	
